A melting point compilation (Tetko et al.; mined from patent text by program, amines drawn as free bases though some values may be those of a salt)

| Structure (SMILES) | melting point [°C] |
| --- | --- |
| CN1Cc2c(C(=O)OCC3CCC3)ncn2-c2cccc(Cl)c2C1=O | 181 to 182 |
| CC(C)(C)C(=O)Oc1ccc(C(=O)NNC(=O)c2occ(-c3ccccc3)c2-c2ccccc2)cc1C#N | 152 to 154 |
| O=C(O)c1ccc(C=CC(=O)N2CCCCC2)cc1 | 257 |
| O=C(O)C1(c2ccc(CN3CCN(c4ccc(F)cc4)CC3)cc2)CC1 | 74 to 77 |
| CCc1noc(-c2cn(-c3ccccc3OCCc3ccccc3)cn2)n1 | 61 |
| COc1ccc(NC(=O)c2coc3c2C(=O)CCCC3)c(F)c1 | 168 to 172 |
| OCCCc1cccc(OCc2coc(/C=C/c3ccccc3)n2)c1 | 57 to 58 |
| COC(=O)Cn1c(=O)c2ccccc2n(CCCCl)c1=O | 144 to 146 |
| Cn1c(C(F)(F)F)cc(=O)n(-c2cc(OCc3ccc(F)cc3)c(Cl)cc2F)c1=O | 174 to 177 |
| COc1cc(OC)c(-c2nc(N3CC(C)NC(C)C3)c3c(C)c(C#N)sc3n2)cc1OC (centres undefined) | 186 to 188 |
| CCCc1nc2ccnn2c(Cl)c1Cc1ccc(-c2ccccc2C#N)cc1 | 137 |
| COC(=O)c1cccc2c1nc(-c1c(F)cccc1F)n2Cc1c(F)cccc1F | 184 to 186 |
| CCOCCNC1CCCCC1Cc1ccc(-c2cccc(N)n2)cc1 (centres undefined) | 70 to 90 |
| CC(C)(C)c1ccc(C2CCSC(c3c(F)cccc3F)=N2)cc1 (centres undefined) | 91 to 91.5 |
| CC12CC(F)C3C(CCC4=CC(=O)CCC43C)C1CCC2=O (centres undefined) | 162 to 164 |
| CN(Cc1cccc2c1CN(C1CCC(=O)NC1=O)C2=O)C(=O)CCNC(=O)OC(C)(C)C (centres undefined) | 222 to 224 |
| COc1nc(C)c(Nc2nc(Cl)cn([C@H](COC(=O)Nc3cccc(C#N)c3)C3CC3)c2=O)cc1C | 206 to 207 |
| CCCCCCCCCCN(CCC12CC3CC(CC(C3)C1)C2)C(=O)NCCCc1ccncc1 | 75 to 76 |
| COC(=O)CCCC#Cc1cc(Cl)ccc1NS(=O)(=O)c1cn(C)cn1 | 76 to 79 |
| COc1cc(-c2c(Cl)c(CN3CCCC3=O)nc3sc4c(c23)CCN(Cc2ccccc2)C4)ccc1O | 190 to 191 |
| COc1ccc2cnc(Nc3ccccc3)nc2c1C(C)C | 172 to 173 |

| Structure (SMILES) | melting point [°C] |
| --- | --- |
| NS(=O)(=O)Oc1cccc(Cl)c1Cl | 116 to 117 |
| C#CC12CC3CC(C1)CC(C14CC5CC(CC(C#C)(C5)C1)C4)(C3)C2 | 208 to 210 |
| CC#CCOc1cc(Oc2c(F)cc(F)cc2F)ncn1 | 60.3 |
| CCN1CCC2(CC1)COc1cc3c(cc12)N(C(=O)c1ccc(-c2ccc(C(=O)NNC(C)=O)cc2C)cc1)CC3 | 154 to 157 |
| O=C(O)c1ccc(C(F)(F)F)cc1SC1CCCCC1 | 115 to 116 |
| CCCc1c(OCCOCCOCCOc2c(C(C)=O)ccc(OCC(=O)O)c2CCC)ccc(C(C)=O)c1O | 74 to 77 |
| CCn1c(=O)c2[nH]c(/C=C/c3ccc4c(c3)OCO4)nc2n(CC)c1=O | > 275 |
| O=C(Cc1ccsc1)N1C(=O)OC[C@@H]1Cc1ccccc1 | 80 to 81 |
| CC(=O)Nc1cccc(/C=C/C(=O)N2CC(CCl)c3c2cc(NC(=O)OCC2c4ccccc4-c4ccccc42)c2ccccc32)c1 (centres undefined) | 208 to 209 |
| Cc1c(Cc2cccc(C(F)(F)F)c2)oc2c(-c3cccc(C(=O)NCCO)c3)cccc12 | 158 to 159 |
| CSc1nc(Br)cc(Br)n1 | 82 to 84 |
| CCCCNc1ccn2ncc(Br)c2n1 | 94 to 95 |
| N#Cc1c(F)nn(-c2c(Cl)cc(C(F)(F)F)cc2Cl)c1N | 193 to 194 |
| CC(C)=NOCOc1cc(-n2c(=O)cc(C(F)(F)F)n(C)c2=O)c(F)cc1Br | 121 |
| COc1cc(-c2ncnc(C(F)(F)F)c2C)c(F)cc1Cl | 144 to 146 |
| CCc1nc2c(C)cc(C)nc2n1Cc1ccc(C(=C(Cl)C(=O)O)c2ccccc2)cc1 | 120 to 125 |
| CC(Oc1ccc(-c2ccc(Cl)cc2)cc1)(C(=O)O)C(F)(F)F (centres undefined) | 198 to 199 |
| CCN(C)C(=O)Nc1ccc2c(c1Cl)C(c1ccccc1F)=NCC(=O)N2C | 184 to 186 |
| COc1cc2c(cc1Cl)C(=O)Cc1ccc(F)cc1S2 | 195 to 197 |
| Fc1ccc(COc2ncc(F)c(NCc3ccccc3F)n2)cc1 | 83 to 84 |
| O=C(NCCO)/C(=C/c1ccc(OC(F)(F)F)cc1)NC(=O)c1ccc(OCCC(F)(F)F)cc1 | 159 to 160 |

| Structure (SMILES) | melting point [°C] |
| --- | --- |
| CS(=O)(=O)c1ccc(-c2cnn(Cc3ccncc3)c(=O)c2-c2ccc(F)cc2)cc1 | 153 to 156 |
| CN(Cc1cc2c3c(c1)c(=O)c(C(=O)NCc1ccc(Cl)cc1)cn3CC(=O)N2C)C[C@@H](O)c1ccsc1 | 137 to 139 |
| COc1ccc(Nc2nc(C)ncc2S(=O)(=O)c2ccc(OCc3ccccc3)cc2)c(C)c1 | 110 to 114 |
| O=S(=O)(c1ccc(F)cc1)C(F)(F)C(F)(F)C(F)(F)C(F)(F)C(F)(F)C(F)(F)C(F)(F)C(F)(F)S(=O)(=O)c1ccc(F)cc1 | 109 to 110 |
| O=C(c1cnc2c(n1)CCCC2)C1CCCCC1 | 63.5 to 64.5 |
| CCCc1nc(S(C)(=O)=O)c(C(=O)O)n1Cc1ccc(-c2ccccc2S(=O)(=O)NC(=O)NCC)cc1 | 131 |
| COc1ccc(C(O)COc2ccc(C(=O)O)c(O)c2)cc1C(C)(C)C (centres undefined) | 149 to 150 |
| OCC(O)Cc1cccc(Cc2ccccc2)c1OCc1ccccc1 (centres undefined) | 55 to 58 |
| O=C(C=Cc1ccc(-c2ccc3ncnc(Nc4ccc(OCc5cccc(F)c5)c(Cl)c4)c3c2)o1)NOC1CCCCO1 (centres undefined) | 233 |
| O=C(NN1CCCCC1)c1nn(-c2ccc(Cl)cc2Cl)c2c1CCc1sc(Br)cc1-2 | 145 |
| O=C(CCCCCOc1ccccc1OCc1ccccc1)C(F)(F)F | 31 to 32 |
| CC(Cc1ccc(Cl)c(Cl)c1)C(=O)Nc1cccc2ncccc12 (centres undefined) | 168 to 170 |
| CC(C)(C)c1cccc(C[C@@H]2N[C@@H](c3ccccc3)[C@@H](c3ccccc3)OC2=O)c1 | 136 to 137 |
| NS(=O)(=O)c1cc2ccncc2o1 | 199 to 201 |
| COc1ccc(C(=O)Nc2cccnc2)cc1NCc1cccs1 | 154 to 155 |
| Cc1ccccc1C(=O)N(CN(C)C)c1ccc(C(=O)N2Cc3ccccc3Cc3ccccc32)cc1 | 131 to 133 |
| Cc1nc(N)c2nc(C)n(CCOCCCc3cccnc3)c2c1C | 109 to 110 |
| COC(=O)C1Oc2ccc(OC)cc2C(C)(c2ccccc2)O1 (centres undefined) | 70 to 71 |
| COc1ccc(N2CCN(c3c(C)c(C)c4c(c3C)CC(C)(C)O4)CC2)cn1 | 178 to 180 |
| ClCCCCCOc1ccc(C2=C(c3ccccc3)CCCc3ccccc32)cc1 | 118 to 120 |
| O=C1Nc2cnncc2C(=O)C1c1c(F)cc(F)cc1F (centres undefined) | > 300 |

Further lines, results first:

| melting point [°C] | Structure (SMILES) |
| --- | --- |
| 249 to 251 | CNC(=O)Nc1snc(C)c1[N+](=O)[O-] |
| 154 to 156 | COc1cc(N)c(Cl)cc1C(=O)NCC1CCN(CCCCC(=O)c2ccc(O)cc2)CC1 |
| 224 to 225 | CCC(C)NC1=NS(=O)(=O)c2sc(C)cc2N1 (centres undefined) |
| 137 to 142 | NS(=O)(=O)c1nc(Cl)cs1 |
| 202 to 203 | CCOC(=O)c1cc2c(OC)cc3c(c2[nH]1)CCCC3 |
| 168 to 172 | COC(=O)c1nc(-c2ccc(Cl)c(OC)c2F)cc(NC(C)=O)c1O |
| 208 | COc1cc(CN2C(=O)c3ccsc3CC2C(=O)O)cc(OC)c1OC (centres undefined) |
| 190 to 191 | NC(=O)c1c(F)ccc(OCc2nc3ccc(Cl)cc3s2)c1F |
| 86 to 88 | CCCCCCCCCCNC(=O)c1cccc([N+](=O)[O-])c1 |
| 48 to 50 | CCCCCCCCCCCCCCC(CCCCCC(=O)O)CCCCCC(=O)O |
| 148 to 150 | CCCCCCOc1ccc2c(c1)c(CC(=O)O)c(C)n2Cc1ccc(Cl)cc1 |
| 120 to 125 | COC(=O)C=C(C)c1ccc(CCNCC(O)c2ccccc2)cc1 (centres undefined) |
| 203 to 204 | CCCn1c(N)c(NC(=O)C2(NC(=O)C(F)(F)F)CCCC2)c(=O)n(CCC)c1=O |
| 101 to 102 | CCc1cc2c(OC)ccc(C)c2nc1Cl |
| 214 to 216 | Cn1ncc2c1-c1c(Oc3ccc(N)cc3)sc(C(N)=O)c1CC2 |
| 154 to 156 | CCOC(=O)C(=O)CC(=O)c1cn(Cc2ccccc2OC)c2ccccc2c1=O |
| 132 to 133 | CNC(=O)C(=NOC)c1ccccn1 |
| 77 to 79 | CCCCCCCCCCCCCCCCCCOc1cccc(C(=O)C(=O)O)c1 |

| melting point [°C] | Structure (SMILES) |
| --- | --- |
| 112 to 118 | CCN(CCCCc1coc2c(OC)cccc12)C1COc2c(F)ccc(C(N)=O)c2C1 (centres undefined) |
| 154 to 155 | CCc1cn(Cc2ccccc2)c(=O)[nH]c1=O |
| 131 to 132 | CC(C)C[C@H](NC(=O)CCS)C(=O)O |
| 184 to 186 | CC(=O)OC1C(C)OC(Oc2nc[nH]c2C(N)=O)C(OC(C)=O)C1OC(C)=O (centres undefined) |
| 105 to 107 | CC(C)C[C@H](NC(=O)OCc1ccccc1)C(=O)N[C@@H](Cc1ccccc1)C(=O)CSCc1ccc(Cl)s1 |
| 114 to 116 | CCC(=C(N)N)[N+](=O)[O-] |
| 272 to 275 | COc1ccc2nc(C(=O)O)c(OCc3ccccc3)cc2c1 |
| 194 to 196 | CC(C1OCCO1)N(C)C(=O)Nc1nnc(S(=O)(=O)N(C)C)s1 (centres undefined) |
| 193 to 197 | CCC(=O)NC(=O)Nc1ccc(OC)c(OC)c1 |
| 118 to 120 | CSCC(=O)[C@H](Cc1ccccc1)NC(=O)[C@H](CC(C)C)NC(C)=O |
| 99 to 101 | CC(C)[C@@H]1OC(=O)N[C@@H]1C(=O)OCc1ccccc1 |
| 129 to 132 | COC(=O)OCC(CO)CCn1cnc2cnc(N)nc21 (centres undefined) |
| 206 | CCOC(=O)COc1ccc(NC(=O)c2csc(NC(=N)N)n2)cc1 |
| 154 | CCOC(C(N)=O)N(c1ccc(Cl)cc1Cc1c(F)cccc1F)S(=O)(=O)c1ccc(OC)c(OC)c1 (centres undefined) |
| 120 to 122 | O=[N+]([O-])c1ccc(S(=O)(=O)On2nnc3ccccc32)cc1 |
| 190 to 195 | CC(=O)OCc1nc2cc(Cl)c(CBr)cc2c(=O)[nH]1 |
| 133 to 134 | CC(=O)N[C@@H](CSC(=O)c1ccccc1)C(=O)NCCSC(=O)C(C)(C)C |
| 202 | CCc1cc2c(=O)[nH]c(CO)nc2s1 |
